Here are results for five compounds from patent publication US10800789B2, “Antiviral compounds” (Gilead Pharmasset LLC, priority 2012, dated 2020).

Where two headings read alike, the source gives them in different places.

The subject of data set [1] is NS5A chimeric genotype 1b Con1 replicon with genotype 4a ED43 strain NS5A gene. The data set can be described thus: Replicon assay, genotype 4a NS5A chimera. The data set is classed as cell-based, HCV. Particulars: Hepatitis C virus. (In general: A replicon is a self-replicating genome or part of one, used to study replication in cells.)
Data set [2] relates to stable HCV 1b RLuc replicon cells (dicistronic genotype 1b Con1 replicon). The data set can be described thus: Renilla luciferase HCV replicon reporter assay, genotype 1b. Format: cell-based. Particulars: Hepatitis C virus, 72 h, stable 1b Con1 RLuc replicon cells, 72 hours; read-out: 1b. Put shortly:
(§1)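 Antiviral EC50 was determined in HCV replicon cells (stable RLuc lines for 1a H77, 1b Con1, 2a JFH-1 with NS5A L31; J6 NS5A chimera with M31) treated 72 h with compound. Renilla luciferase was then quantified.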

The test system of data set [3] is NS5A chimeric genotype 2a JFH-1 replicon with genotype 2b MD2b-1 strain NS5A gene (M31 present). The data set can be described thus: Replicon assay, genotype 2b NS5A chimera. Format: cell-based, HCV. Particulars: Hepatitis C virus. Put shortly: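 Cells carrying the stable or transiently transfected (Huh-Lunet) dicistronic RLuc replicons received 3-fold serial compound dilutions from 10 mM DMSO stocks. After 72 h, cells were lysed and Renilla luciferase read. DMSO served as the no-inhibition control and ITMN-191 above 100×EC50 as the positive control; EC50 by non-linear regression.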

In data set [4] the test system is stable HCV 1a RLuc replicon cells (dicistronic genotype 1a H77 replicon). The data set can be described thus: Renilla luciferase HCV replicon reporter assay, genotype 1a. The data set is classed as cell-based. Particulars: Hepatitis C virus, 72 h, stable 1a H77 RLuc replicon cells. Summed up: as §1
Data set [5] has as its system NS5A chimeric genotype 2a JFH-1 replicon with genotype 2a J6 strain NS5A gene (M31 present). The data set can be described thus: Replicon assay, genotype 2a J6 NS5A chimera. The data set is classed as cell-based, HCV. Particulars: Hepatitis C virus. Summed up:
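EC50 was fitted by non-linear regression to Renilla luciferase signal after 72 h of exposure to 3-fold serially diluted compound (10 mM DMSO stocks). Controls were DMSO (none) and ITMN-191 above 100×EC50 (full). Chimeric 2a replicons were used either stable or transiently transfected into Huh-Lunet cells.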

Data set [6] can be described thus: IV and PO single dose pharmacokinetic studies in SD rats. Format: in vivo, male Sprague-Dawley (SD) rats. Particulars: Sprague-Dawley, rat, plasma, male SD rats, PO 2 mg/kg vs IV infusion 1 mg/kg, read-out: Rat % F. How it is done:
IV and PO Single Dose Pharmacokinetic Studies in SD Rats:
The pharmacokinetics of selected compounds was characterized in male Sprague-Dawley (SD) rats (250-300g). In this study, two groups of naïve purebred SD rats (N=3 per group, fasted over night) received the selected compound either as an intravenous (IV) infusion (1 mg/kg over 30 minutes) via the jugular vein or by oral gavage (2 mg/kg). The intravenous (IV) dosing vehicle was 5% ethanol, 35% polyethylene glycol 400 (PEG 400) and 60% water pH 2.0. The oral dosing vehicle was 5% ethanol, 55% PEG 400 and 40% citrate buffer pH 2.2.
Serial blood samples (approximately 0.3 mL each) were collected from jugular vein or other suitable vein at specified time points. For the IV infusion group, the blood samples were collected predose and at 0.25, 0.48, 0.58, 0.75, 1.5, 3, 6, 8, 12 and 24 hours after the start of infusion. For the oral group, the blood samples were collected predose and at 0.25, 0.50, 1, 2, 4, 6, 8, 12 and 24 hours after dosing. The blood samples were collected into VacutainerγM tubes containing EDTA-K3 as the anti-coagulant and were centrifuged at approximately 4° C. to obtain plasma. The plasma samples were stored at −20° C. until analysis by LC/MS/MS.
A bioanalytical method utilizing high performance liquid chromatography coupled to tandem mass spectrometry (LC/MS/MS) was developed for analysis of the selected compound in rat plasma. Detection was performed using selected reaction monitoring (SRM); Ions representing the precursor (M+H)^+ species was selected in quadrupole 1 (Q1) and collided with argon gas in the collision cell (Q2) to generate specific product ion, which was subsequently monitored by quadrupole 3 (Q3). Standard curve and quality control samples were prepared in male rat plasma and processed in the same way as the test samples to generate quantitative data.
Pharmacokinetic parameters were generated using non-compartmental pharmacokinetic analysis (Phoenix WinNonlin, version 6.3). Values below the lower limit of quantification (LLOQ) were assigned a value of zero if predose and treated as missing thereafter. Area under the curve (AUC) was calculated using the linear trapezoidal rule. The oral bioavailability (% F) was determined by comparison of the area under the curve (AUC) of the compound and/or a metabolite generated in plasma following oral administration to that generated following intravenous administration.

The subject of data set [7] is NS5A chimeric genotype 1b Con1 replicon with genotype 3a S52 strain NS5A gene. The data set can be described thus: Replicon assay, genotype 3a NS5A chimera. Format: cell-based, HCV. Particulars: Hepatitis C virus.
Data set [8] concerns stable HCV 2a JFH-1 Rluc replicon cells (L31 present in NS5A). The data set can be described thus: Renilla luciferase HCV replicon reporter assay, genotype 2a JFH-1. Format: cell-based. Particulars: Hepatitis C virus. Put shortly:
as §1

Setting [9] is: read-out: 4a (s) (nM), genotype 4a NS5A chimeric replicon, stable replicon cells (s).
[10] abbreviates: read-out: 4a (s), (s), activity range.
The mark [11] stands for this setting: 2BS, read-out: 2b (s), stably replicating replicon cells (s), activity range.
[12] abbreviates: read-out: 2b (s) (nM), genotype 2b MD2b-1 NS5A chimeric replicon (M31), stably replicating replicon cells (s).
The mark [13] stands for this setting: read-out: 2a J6 (t) (nM), genotype 2a J6 NS5A chimeric replicon (M31), transiently transfected (t) into Huh-Lunet cells.
Where [14] appears, read: read-out: 2a J6 (t), transiently transfected (t) into Huh-Lunet cells, activity range.
Setting [15] is: read-out: 3a (s) (nM), genotype 3a NS5A chimeric replicon, stable replicon cells (s).
[16] abbreviates: read-out: 3a (s), (s), activity range.
[17] abbreviates: read-out: 2a JFH (nM), genotype 2a JFH-1 replicon (L31 in NS5A), stable cells.
The mark [18] stands for this setting: read-out: 2a JFH, stable 2a JFH-1 Rluc replicon cells, L31 in NS5A, activity range.

With `COC(=O)N[C@H](C(=O)N1[C@@H](C)CC[C@H]1c1ncc(-c2ccc3c(c2)COc2cc4c(ccc5nc([C@@H]6C[C@H](C)CN6C(=O)[C@@H](NC(=O)OC)C6CCOCC6)[nH]c54)cc2-3)[nH]1)C(C)C` [EI, methyl[(1 S)-2-[(2S,4S)-2-(9-{2-[(2S,5S)-1-{(2S)-2-[(methoxycarbonyl)amino]-3-methylbutanoyl}-5-methylpyrrolidin-2-yl]-1H-imidazol-5-yl}-1,11 dihydroisochromeno[4′,3′:6,7]naphtho[1,2-d]imidazol-2-yl)-4-methylpyrrolidin-1-yl]-2-oxo-1-(tetra hydro-2H-pyran-4-yl)ethyl]carbamate], the EC50 in data set [1] (setting [9]) is 0.02 nM; in data set [1] (setting [10]), less than 0.1 nM; in data set [2], 0.048 nM; in data set [3] (setting [11]), less than 0.1 nM; in data set [3] (setting [12]), 0.048 nM; in data set [4], 0.025 nM. The EC50 in data set [4] (activity range) was less than 0.1 nM; in data set [5] (setting [13]), 0.022 nM; in data set [5] (setting [14]) it was less than 0.1 nM; in data set [7] (setting [15]) it was 0.077 nM; in data set [7] (setting [16]), less than 0.1 nM; in data set [7] (read-out: 3a (t) (nM), genotype 3a NS5A chimeric replicon, transiently transfected (t)), 0.074 nM. The EC50 in data set [7] (read-out: 3a (t), transiently transfected (t) into Huh-Lunet cells, activity range) was less than 0.1 nM; in data set [8] (setting [17]), 0.033 nM; in data set [8] (setting [18]) it was less than 0.1 nM. Also, the bioavailability in data set [6] was 4.4%.
On to `CC[C@H](C)[C@H](NC(=O)OC)C(=O)N1[C@@H](C)CC[C@H]1c1ncc(-c2ccc3c(c2)COc2cc4c(ccc5nc([C@@H]6C[C@@H]7CCC[C@@H]7N6C(=O)[C@@H](NC(=O)OC)C6CCOCC6)[nH]c54)cc2-3)[nH]1` [IP], for which the EC50 in data set [1] (setting [9]) was 0.027 nM; in data set [1] (setting [10]) it was less than 0.1 nM; in data set [2] it was 0.029 nM; in data set [3] (setting [11]) it was less than 0.1 nM; in data set [3] (setting [12]), 0.074 nM; in data set [4], 0.025 nM. The EC50 in data set [4] (activity range) was less than 0.1 nM; in data set [5] (setting [13]), 0.041 nM; in data set [5] (setting [14]), less than 0.1 nM; in data set [7] (setting [15]), 0.067 nM; in data set [7] (setting [16]), less than 0.1 nM; in data set [8] (setting [17]), 0.033 nM. The EC50 in data set [8] (setting [18]) was less than 0.1 nM. Further, the bioavailability in data set [6] amounted to 18.9%.
Turning to `COC(=O)N[C@H](C(=O)N1[C@H](c2ncc(-c3ccc4c(c3)COc3cc5c(ccc6nc([C@@H]7C[C@@H]8CCC[C@@H]8N7C(=O)[C@@H](NC(=O)OC)C7CCOCC7)[nH]c65)cc3-4)[nH]2)C[C@@H]2CCC[C@@H]21)C(C)C` [IT], the EC50 in data set [1] (setting [9]) is 0.004 nM; in data set [1] (setting [10]) it was less than 0.1 nM; in data set [2], 0.017 nM; in data set [3] (setting [11]), less than 0.1 nM; in data set [3] (setting [12]), 0.064 nM; in data set [4], 0.012 nM. Further, the EC50 in data set [4] (activity range) is less than 0.1 nM; in data set [5] (read-out: 2a J6 (s) (nM), genotype 2a J6 NS5A chimeric replicon (M31), stably replicating replicon cells (s)) it was 0.007 nM; in data set [5] (read-out: 2a J6 (s), stably replicating replicon cells (s), activity range) it was less than 0.1 nM; in data set [7] (setting [15]), 0.032 nM; in data set [7] (setting [16]) it was less than 0.1 nM; in data set [8] (setting [17]) it was 0.017 nM. Also, the EC50 in data set [8] (setting [18]) is less than 0.1 nM. For the same compound, the bioavailability in data set [6] was 16.2%.
For the compound `COC(=O)NC(C(=O)N1[C@@H](C)CC[C@H]1c1nc2ccc3cc4c(cc3c2[nH]1)OCc1cc(-c2cnc([C@@H]3CC[C@H](C)N3C(=O)[C@@H](NC(=O)OC)C3CCOCC3)[nH]2)ccc1-4)C(C)C` (stereo partly drawn) [EA, Methyl(1-{(2S,5S)-2-[9-(2-{(2S,5S)-1-[(2S)-2-[(methoxycarbonyl)amino]-2-(tetra hydro-2H-pyran-4-yl)acetyl]-5-methylpyrrolidin-2-yl}-1H-imidazol-5-yl)-1,11-dihydroisochromeno[4′,3′:6,7]naphtho[1,2-d]imidazol-2-yl]-5-methylpyrrolidin-1-yl}-3-methyl-1-oxobutan-2-yl)carbamate], the EC50 is 0.019 nM in data set [1] (setting [9]); less than 0.1 nM in data set [1] (setting [10]); 0.028 nM in data set [2]; less than 0.1 nM in data set [3] (setting [11]); 0.088 nM in data set [3] (setting [12]); 0.037 nM in data set [3] (read-out: 2b (t) (nM), genotype 2b MD2b-1 NS5A chimeric replicon (M31), transiently transfected (t)). The EC50 in data set [3] (read-out: 2b (t), transiently transfected (t) into Huh-Lunet cells, activity range) is less than 0.1 nM; in data set [4], 0.018 nM; in data set [4] (activity range), less than 0.1 nM; in data set [5] (setting [13]), 0.035 nM; in data set [5] (setting [14]), less than 0.1 nM; in data set [7] (setting [15]) it was 0.035 nM. The EC50 is less than 0.1 nM in data set [7] (setting [16]), 0.015 nM in data set [8] (setting [17]) and less than 0.1 nM in data set [8] (setting [18]). In addition, the bioavailability in data set [6] was 10.2%.
As for `CC[C@H]1CC[C@@H](c2ncc(-c3ccc4c(c3)COc3cc5c(ccc6nc([C@@H]7CC[C@H](CC)N7C(=O)[C@@H](NC(=O)OC)C7CCOCC7)[nH]c65)cc3-4)[nH]2)N1C(=O)[C@@H](NC(=O)OC)C1CCOCC1` [IE], the EC50 in data set [1] (setting [9]) is 0.039 nM; in data set [1] (setting [10]), less than 0.1 nM; in data set [2], 0.054 nM; in data set [3] (setting [11]) it was less than 0.1 nM; in data set [3] (setting [12]), 0.065 nM; in data set [4], 0.042 nM. Moreover, the EC50 in data set [4] (activity range) was less than 0.1 nM; in data set [5] (setting [13]), 0.042 nM; in data set [5] (setting [14]), less than 0.1 nM; in data set [7] (setting [15]), 0.198 nM; in data set [7] (setting [16]), 0.1 to 0.999 nM; in data set [8] (setting [17]) it was 0.035 nM. For the same compound, in data set [8] (setting [18]), the EC50 is less than 0.1 nM. Moreover, the bioavailability in data set [6] is 2.2%.
